From patent publication US20250064945A1 (Arvinas Operations, Inc., priority 2021, published 2025) come the findings set out here.

Structures are written as SMILES. Where a name gives a salt, the structure may show the parent alone.

The target in the assay is T1, BRM (Homo sapiens, UniProt P51531).
T1 construct: In-Cell Western Screen of BRM Degradation in SW1573 Cells; endogenous in cells; host or cells: SW1573 cells
In words: Western blot / In-Cell Western screen of BRM degradation in SW1573 cells. The format is cell-based. To be noted: overnight (18-20 hours) treatment; for Dmax: read-out: Dmax (%) (% degraded). The method, boiled down:
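SW1573 cells treated overnight (18-20 hours) with compound at 0.1% final DMSO. BRM measured either by Western blot of RIPA lysates with alpha-tubulin control and chemiluminescent detection, or by In-Cell Western on fixed, permeabilized cells with LI-COR dual-channel read against alpha-tubulin; Dmax and DC50 derived.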

T1 sequence (P51531 whole entry): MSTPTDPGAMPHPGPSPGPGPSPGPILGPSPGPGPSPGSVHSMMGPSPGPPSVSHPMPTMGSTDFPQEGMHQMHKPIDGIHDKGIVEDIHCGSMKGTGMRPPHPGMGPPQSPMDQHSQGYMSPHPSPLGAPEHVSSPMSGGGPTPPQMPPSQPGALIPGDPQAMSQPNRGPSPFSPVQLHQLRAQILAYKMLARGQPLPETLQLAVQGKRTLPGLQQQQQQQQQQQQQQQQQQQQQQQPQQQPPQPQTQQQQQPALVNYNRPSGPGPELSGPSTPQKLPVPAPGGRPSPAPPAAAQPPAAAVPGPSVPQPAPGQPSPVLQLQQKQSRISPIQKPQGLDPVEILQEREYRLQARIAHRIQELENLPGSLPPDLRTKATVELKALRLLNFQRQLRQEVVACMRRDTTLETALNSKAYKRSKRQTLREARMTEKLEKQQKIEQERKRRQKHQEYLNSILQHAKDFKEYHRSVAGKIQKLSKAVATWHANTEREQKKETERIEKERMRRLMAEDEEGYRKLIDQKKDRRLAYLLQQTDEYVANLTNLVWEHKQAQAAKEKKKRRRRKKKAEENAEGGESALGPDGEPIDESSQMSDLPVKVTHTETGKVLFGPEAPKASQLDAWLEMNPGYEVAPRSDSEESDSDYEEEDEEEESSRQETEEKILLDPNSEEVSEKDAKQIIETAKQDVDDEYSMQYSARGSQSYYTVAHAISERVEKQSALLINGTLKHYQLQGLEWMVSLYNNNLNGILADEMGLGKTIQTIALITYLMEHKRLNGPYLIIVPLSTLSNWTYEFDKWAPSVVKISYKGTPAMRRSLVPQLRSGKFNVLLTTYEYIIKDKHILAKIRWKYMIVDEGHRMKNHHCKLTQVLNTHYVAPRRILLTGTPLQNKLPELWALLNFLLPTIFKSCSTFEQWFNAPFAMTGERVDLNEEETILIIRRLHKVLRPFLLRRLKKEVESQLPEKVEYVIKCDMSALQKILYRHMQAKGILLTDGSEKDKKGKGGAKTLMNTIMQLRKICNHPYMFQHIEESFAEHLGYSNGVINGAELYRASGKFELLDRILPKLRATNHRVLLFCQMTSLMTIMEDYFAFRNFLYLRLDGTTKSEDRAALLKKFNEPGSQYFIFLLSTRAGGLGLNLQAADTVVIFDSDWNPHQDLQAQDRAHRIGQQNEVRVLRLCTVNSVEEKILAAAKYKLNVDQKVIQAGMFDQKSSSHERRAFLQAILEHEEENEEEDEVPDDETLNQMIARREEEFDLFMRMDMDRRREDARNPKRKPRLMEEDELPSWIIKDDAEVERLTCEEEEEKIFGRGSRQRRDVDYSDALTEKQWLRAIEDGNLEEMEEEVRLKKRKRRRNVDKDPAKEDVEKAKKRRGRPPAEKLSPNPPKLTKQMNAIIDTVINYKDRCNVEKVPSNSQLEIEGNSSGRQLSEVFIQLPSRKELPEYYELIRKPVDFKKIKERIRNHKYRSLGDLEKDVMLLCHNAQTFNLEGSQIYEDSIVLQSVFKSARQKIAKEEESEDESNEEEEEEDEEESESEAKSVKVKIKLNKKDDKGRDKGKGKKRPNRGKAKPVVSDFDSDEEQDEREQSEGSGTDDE

Regarding `Cc1ncsc1-c1ccc([C@H](C)NC(=O)[C@@H]2C[C@@H](O)CN2C(=O)[C@@H](c2cc(N3CCC(CN4CCC5(CC4)CC(N4CCO[C@@H](CN6CCOC7(CCN(c8cc(-c9ccccc9O)nnc8N)CC7)C6)C4)C5)CC3)no2)C(C)C)cc1` [Compound 26, (2S,4R)-1-[(2R)-2-{3-[4-({2-[(2S)-2-({9-[3-amino-6-(2-hydroxyphenyl)pyridazin-4-yl]-1-oxa-4,9-diazaspiro[5.5]undecan-4-yl}methyl)morpholin-4-yl]-7-azaspiro[3.5]nonan-7-yl}methyl)piperidin-1-yl]-1,2-oxazol-5-yl}-3-methylbutanoyl]-4-hydroxy-N-[(1S)-1-[4-(4-methyl-1,3-thiazol-5-yl)phenyl]ethyl]pyrrolidine-2-carboxamide], the half-maximal degradation concentration (DC50) is under 2.5 nM and the greatest degradation seen (Dmax) was over 75%.
As for `Cc1ncsc1-c1ccc([C@H](C)NC(=O)[C@@H]2C[C@@H](O)CN2C(=O)[C@@H](c2cc(N3CCC(CN4CCC(O[C@H]5C[C@H](N6CCC(CN7CC8(C7)CN(c7cc(-c9ccccc9O)nnc7N)CCN8C)CC6)C5)CC4)CC3)no2)C(C)C)cc1` [Compound 27, (2S,4R)-4-hydroxy-N-[(1S)-1-[4-(4-methyl-1,3-thiazol-5-yl)phenyl]ethyl]-1-[(2R)-3-methyl-2-{3-[4-({4-[(1r,3r)-3-[4-({8-[3-amino-6-(2-hydroxyphenyl)pyridazin-4-yl]-5-methyl-2,5,8-triazaspiro[3.5]nonan-2-yl}methyl)piperidin-1-yl]cyclobutoxy]piperidin-1-yl}methyl)piperidin-1-yl]-1,2-oxazol-5-yl}butanoyl]pyrrolidine-2-carboxamide], the DC50 was in the range of 2.5 to 10 nM and the Dmax was over 75%.
For the compound `Cc1ncsc1-c1ccc([C@H](C)NC(=O)[C@@H]2C[C@@H](O)CN2C(=O)[C@@H](c2cc(N3CCC(CN4CCC(O[C@H]5C[C@H](C#Cc6cn7cc(-c8ccccc8O)nc7nc6N)C5)CC4)CC3)no2)C(C)C)cc1` [Compound 28, (2S,4R)-4-hydroxy-N-[(1S)-1-[4-(4-methyl-1,3-thiazol-5-yl)phenyl]ethyl]-1-[(2R)-3-methyl-2-{3-[4-({4-[(1r,3r)-3-(2-[7-amino-2-(2-hydroxyphenyl)imidazo[1,2-a]pyrimidin-6-yl]ethynyl}cyclobutoxy]piperidin-1-yl}methyl)piperidin-1-yl]-1,2-oxazol-5-yl}butanoyl]pyrrolidine-2-carboxamide], the DC50 is under 2.5 nM and the maximal degradation (Dmax) was over 75%.
The like results for `Cc1ncsc1-c1ccc([C@H](C)NC(=O)[C@@H]2C[C@@H](O)CN2C(=O)[C@@H](c2cc(N3CCC(CN4CCC(O[C@H]5C[C@H](OCC#Cc6cn7cc(-c8ccccc8O)nc7nc6N)C5)CC4)CC3)no2)C(C)C)cc1` [Compound 29] were, in that order, under 2.5 nM and over 75%.
The compound `Cc1ncsc1-c1ccc([C@H](C)NC(=O)[C@@H]2C[C@@H](O)CN2C(=O)[C@H](c2cc(OCCCC#Cc3cn4cc(-c5ccccc5O)nc4nc3N)no2)C(C)C)cc1` [Compound 30, (2S,4R)-1-[(2S)-2-[3-({5-[7-amino-2-(2-hydroxyphenyl)imidazo[1,2-a]pyrimidin-6-yl]pent-4-yn-1-yl}oxy)-1,2-oxazol-5-yl]-3-methylbutanoyl]-4-hydroxy-N-[(1S)-1-[4-(4-methyl-1,3-thiazol-5-yl)phenyl]ethyl]pyrrolidine-2-carboxamide] came in with a DC50 of at least 30 nM.
As for `Cc1ncsc1-c1ccc([C@H](C)NC(=O)[C@@H]2C[C@@H](O)CN2C(=O)[C@@H](c2cc(OCCCC#Cc3cn4cc(-c5ccccc5O)nc4nc3N)no2)C(C)C)cc1` [Compound 31, (2S,4R)-1-[(2R)-2-[3-[5-[7-amino-2-(2-hydroxyphenyl)imidazo[1,2-a]pyrimidin-6-yl]pent-4-ynoxy]isoxazole-5-yl]-3-methyl-butanoyl]-4-hydroxy-N-[(1S)-1-[4-(4-methylthiazol-5-yl)phenyl]ethyl]pyrrolidine-2-carboxamide], the DC50 is at least 30 nM.
Consider `CC(C)[C@@H](C(=O)N1C[C@H](O)C[C@H]1C(=O)N[C@@H](C)c1ccc(-c2ccnn2C)cc1)c1cc(N2CCC(CN3CCC(O[C@H]4C[C@H](OCC#Cc5cn6cc(-c7ccccc7O)nc6nc5N)C4)CC3)CC2)no1` [Compound 32], for which the half-maximal degradation concentration (DC50) is under 2.5 nM and the Dmax is over 75%.
On the same counts, the results for `CC(C)[C@@H](C(=O)N1C[C@H](O)C[C@H]1C(=O)N[C@@H](C)c1ccc(-c2ccnn2C)cc1)c1cc(N2CCC(CN3CCC(O[C@H]4C[C@H](C#Cc5cn6cc(-c7ccccc7O)nc6nc5N)C4)CC3)CC2)no1` [Compound 33] are under 2.5 nM and over 75%.
`Cc1ncsc1-c1ccc([C@H](C)NC(=O)[C@@H]2C[C@@H](O)CN2C(=O)[C@H](c2cc(N3CCC(O[C@H]4C[C@H](OCC#Cc5cn6cc(-c7ccccc7O)nc6nc5N)C4)CC3)no2)C(C)C)cc1` [Compound 34, (2S,4R)-4-hydroxy-N-[(1S)-1-[4-(4-methyl-1,3-thiazol-5-yl)phenyl]ethyl]-1-[(2S)-3-methyl-2-(3-{4-[(1r,3r)-3-({3-[7-amino-2-(2-hydroxyphenyl)imidazo[1,2-a]pyrimidin-6-yl]prop-2-yn-1-yl}oxy)cyclobutoxy]piperidin-1-yl}-1,2-oxazol-5-yl)butanoyl]pyrrolidine-2-carboxamide] had a DC50 of at least 30 nM.
Turning to `Cc1ncsc1-c1ccc([C@H](C)NC(=O)[C@@H]2C[C@@H](O)CN2C(=O)[C@@H](c2cc(N3CCC(O[C@H]4C[C@H](OCC#Cc5cn6cc(-c7ccccc7O)nc6nc5N)C4)CC3)no2)C(C)C)cc1` [Compound 35, formate], the DC50 lay within 2.5 to 10 nM and the maximal degradation (Dmax) was over 75%.
In the case of `Cc1ncsc1-c1ccc([C@H](C)NC(=O)[C@@H]2C[C@@H](O)CN2C(=O)[C@@H](c2cc(N3CCC(CN4CCC(O[C@H]5C[C@@H](N6CCC(CC#Cc7cn8cc(-c9ccccc9O)nc8nc7N)CC6)C5)CC4)CC3)no2)C(C)C)cc1` [Compound 36, formate], the DC50 is under 2.5 nM and the Dmax is over 75%.
As for `Cc1ncsc1-c1ccc([C@H](C)NC(=O)[C@@H]2C[C@@H](O)CN2C(=O)[C@@H](c2cc(N3CCC(CN4CCC(O[C@H]5C[C@H](N6CCC(CC#Cc7cn8cc(-c9ccccc9O)nc8nc7N)CC6)C5)CC4)CC3)no2)C(C)C)cc1` [Compound 37, (2S,4R)-4-hydroxy-N-[(1S)-1-[4-(4-methyl-1,3-thiazol-5-yl)phenyl]ethyl]-1-[(2R)-3-methyl-2-{3-[4-({4-[(1r,3r)-3-(4-{3-[7-amino-2-(2-hydroxyphenyl)imidazo[1,2-a]pyrimidin-6-yl]prop-2-yn-1-yl}piperidin-1-yl)cyclobutoxy]piperidin-1-yl}methyl)piperidin-1-yl]-1,2-oxazol-5-yl}butanoyl]pyrrolidine-2-carboxamide], the 50% degradation concentration (DC50) is under 2.5 nM and the greatest degradation seen (Dmax) is over 75%.
In the case of `Cc1ncsc1-c1ccc([C@H](C)NC(=O)[C@@H]2C[C@@H](O)CN2C(=O)[C@@H](c2cc(N3CCC(CN4CCC(OCCn5cnc(-c6cn7cc(-c8ccccc8O)nc7nc6N)c5)CC4)CC3)no2)C(C)C)cc1` [Compound 38, (2S,4R)-1-[(2R)-2-[3-(4-{[4-(2-{4-[7-amino-2-(2-hydroxyphenyl)imidazo[1,2-a]pyrimidin-6-yl]-1H-imidazol-1-yl}ethoxy)piperidin-1-yl]methyl}piperidin-1-yl)-1,2-oxazol-5-yl]-3-methylbutanoyl]-4-hydroxy-N-[(1S)-1-[4-(4-methyl-1,3-thiazol-5-yl)phenyl]ethyl]pyrrolidine-2-carboxamide], the 50% degradation concentration (DC50) was 2.5 to 10 nM and the Dmax was over 75%.
As for `CC(C)[C@@H](C(=O)N1C[C@H](O)C[C@H]1C(=O)N[C@@H](C)c1ccc(-c2c(F)cnn2C)cc1)c1cc(N2CCC(CN3CCC(O[C@H]4C[C@H](C#Cc5cn6cc(-c7ccccc7O)nc6nc5N)C4)CC3)CC2)no1` [Compound 39, (2S,4R)-N-[(1S)-1-[4-(4-fluoro-1-methyl-1H-pyrazol-5-yl)phenyl]ethyl]-4-hydroxy-1-[(2R)-3-methyl-2-{3-[4-({4-[(1r,3r)-3-{2-[7-amino-2-(2-hydroxyphenyl)imidazo[1,2-a]pyrimidin-6-yl]ethynyl}cyclobutoxy]piperidin-1-yl}methyl)piperidin-1-yl]-1,2-oxazol-5-yl}butanoyl]pyrrolidine-2-carboxamide], the DC50 was under 2.5 nM and the maximal degradation (Dmax) was over 75%.
On to `Cc1cnn(C)c1-c1ccc([C@H](C)NC(=O)[C@@H]2C[C@@H](O)CN2C(=O)[C@@H](c2cc(N3CCC(CN4CCC(O[C@H]5C[C@H](C#Cc6cn7cc(-c8ccccc8O)nc7nc6N)C5)CC4)CC3)no2)C(C)C)cc1` [Compound 40, (2S,4R)-N-[(1S)-1-[4-(1,4-dimethyl-1H-pyrazol-5-yl)phenyl]ethyl]-4-hydroxy-1-[(2R)-3-methyl-2-{3-[4-({4-[(1r,3r)-3-{2-[7-amino-2-(2-hydroxyphenyl)imidazo[1,2-a]pyrimidin-6-yl]ethynyl}cyclobutoxy]piperidin-1-yl}methyl)piperidin-1-yl]-1,2-oxazol-5-yl}butanoyl]pyrrolidine-2-carboxamide], for which the 50% degradation concentration (DC50) fell in the range of 2.5 to 10 nM and the maximal degradation (Dmax) was over 75%.
For `CC(C)[C@@H](C(=O)N1C[C@H](O)C[C@H]1C(=O)N[C@@H](C)c1ccc(-c2ccnn2C)cc1)c1cc(N2CCC(CN3CCC(O[C@H]4C[C@H](n5cc(-c6cn7cc(-c8ccccc8O)nc7nc6N)cn5)C4)CC3)CC2)no1` [Compound 41, (2S,4R)-4-hydroxy-N-[(1S)-1-[4-(1-methyl-1H-pyrazol-5-yl)phenyl]ethyl]-1-[(2R)-3-methyl-2-{3-[4-({4-[(1r,3r)-3-{4-[7-amino-2-(2-hydroxyphenyl)imidazo[1,2-a]pyrimidin-6-yl]-1H-pyrazol-1-yl}cyclobutoxy]piperidin-1-yl}methyl)piperidin-1-yl]-1,2-oxazol-5-yl}butanoyl]pyrrolidine-2-carboxamide], the DC50 was under 2.5 nM and the greatest degradation seen (Dmax) was over 75%.
